test system: Hepatitis C virus; experiment: microbe, parasite or virus in culture; type: functional, organism-based, Hepacivirus hominis, subtype 1a, Huh-lunet; details: Hepatitis C virus, subtype 1a, Huh-lunet, 96 h
Description: Antiviral activity against HCV-1a infected in human Huh-lunet cells after 4 days by luciferase based replicon assay

Compound | EC50 [µM]
CS(=O)(=O)Nc1ccc2c(c1)S(=O)(=O)N=C(C1=C(O)[C@@H]3[C@H]4CC[C@H](C4)[C@@H]3N(Cc3cccc(F)c3)C1=O)N2 | 0.33
CS(=O)(=O)Nc1ccc2c(c1)S(=O)(=O)N=C(C1=C(O)[C@@H]3[C@H]4CC[C@H](C4)[C@@H]3N(Cc3ccc(Cl)cc3)C1=O)N2 | 0.76
CS(=O)(=O)Nc1ccc2c(c1)S(=O)(=O)N=C(C1=C(O)[C@@H]3C4CCC(CC4)[C@@H]3N(CC3CCCCC3)C1=O)N2 | 0.055
CS(=O)(=O)Nc1ccc2c(c1)S(=O)(=O)N=C(C1=C(O)[C@@H]3C4CCC(CC4)[C@@H]3N(CC(F)(F)F)C1=O)N2 | 0.06
CS(=O)(=O)Nc1ccc2c(c1)S(=O)(=O)N=C(C1=C(O)[C@@H]3C4CCC(CC4)[C@@H]3N(Cc3cccs3)C1=O)N2 | 0.12
CC(C)CCN1C(=O)C(C2=NS(=O)(=O)c3cc(NS(C)(=O)=O)ccc3N2)=C(O)[C@@H]2[C@H]3CC[C@H](C3)[C@@H]21 | 0.072
CS(=O)(=O)Nc1ccc2c(c1)S(=O)(=O)N=C(C1=C(O)[C@@H]3[C@H]4CC[C@H](C4)[C@@H]3N(Cc3cccs3)C1=O)N2 | 0.066
CC(C)(C)CCN1C(=O)C(C2=NS(=O)(=O)c3cc(NS(C)(=O)=O)ccc3N2)=C(O)[C@@H]2[C@H]3CC[C@H](C3)[C@@H]21 | 0.18

test system: Hepatitis C virus; experiment: microbe, parasite or virus in culture; type: functional, organism-based, Hepacivirus hominis, genotype 1b, Huh-luc/neo-ET; details: Hepatitis C virus, genotype 1b, Huh-luc/neo-ET, 72 h
Description: Antiviral activity against HCV-1b infected human Huh-luc/neo-ET replicon cells after 72 hrs by luciferase based replicon assay

Compound | EC50 [µM]
CS(=O)(=O)Nc1ccc2c(c1)S(=O)(=O)N=C(C1=C(O)[C@@H]3C4CCC(CC4)[C@@H]3N(Cc3cccc(F)c3F)C1=O)N2 | 0.082
CS(=O)(=O)Nc1ccc2c(c1)S(=O)(=O)N=C(C1=C(O)[C@@H]3C4CCC(CC4)[C@@H]3N(Cc3cc(Cl)ccc3F)C1=O)N2 | 0.08
CS(=O)(=O)Nc1ccc2c(c1)S(=O)(=O)N=C(C1=C(O)[C@@H]3[C@H]4CC[C@H](C4)[C@@H]3N(Cc3cccc(F)c3)C1=O)N2 | 0.01
CS(=O)(=O)Nc1ccc2c(c1)S(=O)(=O)N=C(C1=C(O)[C@@H]3[C@H]4CC[C@H](C4)[C@@H]3N(Cc3ccc(Cl)cc3)C1=O)N2 | 0.203
CS(=O)(=O)Nc1ccc2c(c1)S(=O)(=O)N=C(C1=C(O)[C@@H]3C4CCC(CC4)[C@@H]3N(CC3CCCCC3)C1=O)N2 | 0.011
CS(=O)(=O)Nc1ccc2c(c1)S(=O)(=O)N=C(C1=C(O)[C@@H]3C4CCC(CC4)[C@@H]3N(CC(F)(F)F)C1=O)N2 | 0.004
CS(=O)(=O)Nc1ccc2c(c1)S(=O)(=O)N=C(C1=C(O)[C@@H]3C4CCC(CC4)[C@@H]3N(Cc3cccs3)C1=O)N2 | 0.006
CC(C)CCN1C(=O)C(C2=NS(=O)(=O)c3cc(NS(C)(=O)=O)ccc3N2)=C(O)[C@@H]2[C@H]3CC[C@H](C3)[C@@H]21 | 0.012
CS(=O)(=O)Nc1ccc2c(c1)S(=O)(=O)N=C(C1=C(O)[C@@H]3[C@H]4CC[C@H](C4)[C@@H]3N(Cc3cccs3)C1=O)N2 | 0.018
CC(C)(C)CCN1C(=O)C(C2=NS(=O)(=O)c3cc(NS(C)(=O)=O)ccc3N2)=C(O)[C@@H]2[C@H]3CC[C@H](C3)[C@@H]21 | 0.02

test system: not listed separately; experiment: in vitro; details: human, liver microsomes, t1/2

Compound | half-life at 1 µM [min]
CS(=O)(=O)Nc1ccc2c(c1)S(=O)(=O)N=C(C1=C(O)[C@@H]3C4CCC(CC4)[C@@H]3N(Cc3cccc(F)c3F)C1=O)N2 | > 60
CS(=O)(=O)Nc1ccc2c(c1)S(=O)(=O)N=C(C1=C(O)[C@@H]3C4CCC(CC4)[C@@H]3N(Cc3cc(Cl)ccc3F)C1=O)N2 | > 60
CS(=O)(=O)Nc1ccc2c(c1)S(=O)(=O)N=C(C1=C(O)[C@@H]3C4CCC(CC4)[C@@H]3N(Cc3cccs3)C1=O)N2 | 51
CC(C)CCN1C(=O)C(C2=NS(=O)(=O)c3cc(NS(C)(=O)=O)ccc3N2)=C(O)[C@@H]2[C@H]3CC[C@H](C3)[C@@H]21 | 37

same assay, conditions: human, microsomes, t1/2

Compound | half-life at 1 µM [min]
CS(=O)(=O)Nc1ccc2c(c1)S(=O)(=O)N=C(C1=C(O)[C@@H]3[C@H]4CC[C@H](C4)[C@@H]3N(Cc3cccc(F)c3)C1=O)N2 | > 60
CS(=O)(=O)Nc1ccc2c(c1)S(=O)(=O)N=C(C1=C(O)[C@@H]3[C@H]4CC[C@H](C4)[C@@H]3N(Cc3ccc(Cl)cc3)C1=O)N2 | > 60
CS(=O)(=O)Nc1ccc2c(c1)S(=O)(=O)N=C(C1=C(O)[C@@H]3C4CCC(CC4)[C@@H]3N(CC3CCCCC3)C1=O)N2 | 50
CS(=O)(=O)Nc1ccc2c(c1)S(=O)(=O)N=C(C1=C(O)[C@@H]3C4CCC(CC4)[C@@H]3N(CC(F)(F)F)C1=O)N2 | 6
CS(=O)(=O)Nc1ccc2c(c1)S(=O)(=O)N=C(C1=C(O)[C@@H]3[C@H]4CC[C@H](C4)[C@@H]3N(Cc3cccs3)C1=O)N2 | > 60
CC(C)(C)CCN1C(=O)C(C2=NS(=O)(=O)c3cc(NS(C)(=O)=O)ccc3N2)=C(O)[C@@H]2[C@H]3CC[C@H](C3)[C@@H]21 | 4

test system: not listed separately; experiment: in vitro; details: human, liver microsomes
Description: Metabolic stability in human liver microsomes assessed as compound remaining after 60 mins at 1 uM

Compound | remaining at 1 h, 1 µM [%]
CS(=O)(=O)Nc1ccc2c(c1)S(=O)(=O)N=C(C1=C(O)[C@@H]3C4CCC(CC4)[C@@H]3N(Cc3cccc(F)c3F)C1=O)N2 | 75
CS(=O)(=O)Nc1ccc2c(c1)S(=O)(=O)N=C(C1=C(O)[C@@H]3C4CCC(CC4)[C@@H]3N(Cc3cc(Cl)ccc3F)C1=O)N2 | 100

same assay, conditions: human, microsomes

Compound | remaining at 1 h, 1 µM [%]
CS(=O)(=O)Nc1ccc2c(c1)S(=O)(=O)N=C(C1=C(O)[C@@H]3[C@H]4CC[C@H](C4)[C@@H]3N(Cc3cccc(F)c3)C1=O)N2 | 85
CS(=O)(=O)Nc1ccc2c(c1)S(=O)(=O)N=C(C1=C(O)[C@@H]3[C@H]4CC[C@H](C4)[C@@H]3N(Cc3ccc(Cl)cc3)C1=O)N2 | 84
CS(=O)(=O)Nc1ccc2c(c1)S(=O)(=O)N=C(C1=C(O)[C@@H]3[C@H]4CC[C@H](C4)[C@@H]3N(Cc3cccs3)C1=O)N2 | 81
